# From publication PMC3344384 (Chemistry & biology, 2011)
# How the values were obtained:
# [1] = molecular target: USP1/UAF1 (Homo sapiens, UniProt O94782+Q8TAF3); experiment: reversibility of inhibition by rapid dilution; details: incubation at 10 times IC50, 100-fold rapid dilution
# [2] = molecular target: T1, UCH-L3 (Homo sapiens, UniProt P15374); experiment: Ub-Rho assay, UCH-L3; assay type: biochemical
# T1 sequence (P15374 1-230): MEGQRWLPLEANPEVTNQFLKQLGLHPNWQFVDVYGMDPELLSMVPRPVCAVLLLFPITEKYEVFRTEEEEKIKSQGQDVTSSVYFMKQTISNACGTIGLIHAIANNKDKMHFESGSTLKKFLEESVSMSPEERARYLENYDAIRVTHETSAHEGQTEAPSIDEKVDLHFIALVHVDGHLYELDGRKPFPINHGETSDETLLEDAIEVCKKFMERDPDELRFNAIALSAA
# [3] = molecular target: T2, papain (Carica papaya, UniProt P00784); experiment: cysteine protease selectivity, papain; assay type: biochemical
# T2 sequence (P00784 134-345): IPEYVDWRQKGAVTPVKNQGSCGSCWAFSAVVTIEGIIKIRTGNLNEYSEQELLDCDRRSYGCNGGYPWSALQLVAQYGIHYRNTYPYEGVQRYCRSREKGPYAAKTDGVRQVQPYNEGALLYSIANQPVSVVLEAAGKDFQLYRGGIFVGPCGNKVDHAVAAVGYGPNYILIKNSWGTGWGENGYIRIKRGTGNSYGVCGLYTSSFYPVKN
# [4] = molecular target: T3, caspase-1 (Homo sapiens, UniProt P29466); experiment: cysteine protease selectivity, caspase-1; assay type: biochemical
# T3 sequence (P29466 120-297 limits assumed): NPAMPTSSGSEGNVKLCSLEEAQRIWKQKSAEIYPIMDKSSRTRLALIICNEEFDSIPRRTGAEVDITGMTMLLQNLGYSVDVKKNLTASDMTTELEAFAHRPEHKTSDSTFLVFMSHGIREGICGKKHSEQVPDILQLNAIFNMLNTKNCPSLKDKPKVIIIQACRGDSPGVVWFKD
# T3 sequence (P29466 317-404 limits assumed): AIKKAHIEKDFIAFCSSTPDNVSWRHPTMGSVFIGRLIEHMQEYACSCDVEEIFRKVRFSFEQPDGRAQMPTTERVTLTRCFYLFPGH
# [5] = molecular target: T4, caspase-6 (Homo sapiens, UniProt P55212); experiment: cysteine protease selectivity, caspase-6; assay type: biochemical
# T4 sequence (P55212 24-179 limits assumed): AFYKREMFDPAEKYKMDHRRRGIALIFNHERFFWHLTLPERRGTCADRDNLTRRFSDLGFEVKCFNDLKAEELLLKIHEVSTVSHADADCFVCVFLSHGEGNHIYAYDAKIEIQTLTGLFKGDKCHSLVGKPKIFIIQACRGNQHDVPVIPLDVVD
# T4 sequence (P55212 194-293 limits assumed): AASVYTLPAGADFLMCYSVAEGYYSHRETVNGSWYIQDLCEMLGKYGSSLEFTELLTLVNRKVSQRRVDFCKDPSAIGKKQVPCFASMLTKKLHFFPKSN
# [6] = molecular target: T5, UCH-L1 (Homo sapiens, UniProt P09936); experiment: Ub-Rho assay, UCH-L1; assay type: biochemical
# T5 sequence (P09936 1-223): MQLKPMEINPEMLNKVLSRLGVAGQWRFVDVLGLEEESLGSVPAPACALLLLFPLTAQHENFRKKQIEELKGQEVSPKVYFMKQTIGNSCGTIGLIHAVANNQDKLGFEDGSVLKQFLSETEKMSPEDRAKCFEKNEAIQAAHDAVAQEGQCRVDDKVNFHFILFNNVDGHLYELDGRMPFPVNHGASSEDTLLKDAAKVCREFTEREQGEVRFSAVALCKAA
# [7] = molecular target: T6, USP1 alone (Homo sapiens, UniProt O94782); experiment: Ub-Rho assay, USP1 alone; assay type: biochemical; details: Ub-Rho substrate, absence of UAF1 subunit
# T6 sequence (O94782 1-785): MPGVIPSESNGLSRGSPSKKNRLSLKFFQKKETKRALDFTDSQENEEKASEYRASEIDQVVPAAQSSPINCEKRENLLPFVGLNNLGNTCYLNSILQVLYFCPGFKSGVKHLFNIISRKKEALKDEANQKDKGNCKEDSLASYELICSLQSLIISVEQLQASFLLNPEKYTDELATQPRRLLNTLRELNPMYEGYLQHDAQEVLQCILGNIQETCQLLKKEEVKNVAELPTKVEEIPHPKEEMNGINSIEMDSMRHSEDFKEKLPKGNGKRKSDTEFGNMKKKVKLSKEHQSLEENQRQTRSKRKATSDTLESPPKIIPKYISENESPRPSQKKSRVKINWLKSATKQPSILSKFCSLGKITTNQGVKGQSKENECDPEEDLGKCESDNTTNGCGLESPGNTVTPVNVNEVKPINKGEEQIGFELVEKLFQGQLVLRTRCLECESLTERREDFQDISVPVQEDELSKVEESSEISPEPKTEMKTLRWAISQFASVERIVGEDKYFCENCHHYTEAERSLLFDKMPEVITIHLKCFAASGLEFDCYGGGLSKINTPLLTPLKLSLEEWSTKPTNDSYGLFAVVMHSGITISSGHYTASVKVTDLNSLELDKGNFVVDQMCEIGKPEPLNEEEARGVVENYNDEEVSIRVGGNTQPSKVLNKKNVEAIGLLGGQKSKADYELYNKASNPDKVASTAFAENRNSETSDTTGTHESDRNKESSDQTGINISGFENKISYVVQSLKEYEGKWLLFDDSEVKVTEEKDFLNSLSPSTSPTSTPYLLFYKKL
# [8] = molecular target: USP7 (Homo sapiens, UniProt Q93009); experiment: K63-linked diubiquitin cleavage assay, USP7; details: for IC50 for USP7, fold higher than that for USP1/UAF1: K63-linked diubiquitin substrate
# Chain of USP7 (Q93009 whole entry): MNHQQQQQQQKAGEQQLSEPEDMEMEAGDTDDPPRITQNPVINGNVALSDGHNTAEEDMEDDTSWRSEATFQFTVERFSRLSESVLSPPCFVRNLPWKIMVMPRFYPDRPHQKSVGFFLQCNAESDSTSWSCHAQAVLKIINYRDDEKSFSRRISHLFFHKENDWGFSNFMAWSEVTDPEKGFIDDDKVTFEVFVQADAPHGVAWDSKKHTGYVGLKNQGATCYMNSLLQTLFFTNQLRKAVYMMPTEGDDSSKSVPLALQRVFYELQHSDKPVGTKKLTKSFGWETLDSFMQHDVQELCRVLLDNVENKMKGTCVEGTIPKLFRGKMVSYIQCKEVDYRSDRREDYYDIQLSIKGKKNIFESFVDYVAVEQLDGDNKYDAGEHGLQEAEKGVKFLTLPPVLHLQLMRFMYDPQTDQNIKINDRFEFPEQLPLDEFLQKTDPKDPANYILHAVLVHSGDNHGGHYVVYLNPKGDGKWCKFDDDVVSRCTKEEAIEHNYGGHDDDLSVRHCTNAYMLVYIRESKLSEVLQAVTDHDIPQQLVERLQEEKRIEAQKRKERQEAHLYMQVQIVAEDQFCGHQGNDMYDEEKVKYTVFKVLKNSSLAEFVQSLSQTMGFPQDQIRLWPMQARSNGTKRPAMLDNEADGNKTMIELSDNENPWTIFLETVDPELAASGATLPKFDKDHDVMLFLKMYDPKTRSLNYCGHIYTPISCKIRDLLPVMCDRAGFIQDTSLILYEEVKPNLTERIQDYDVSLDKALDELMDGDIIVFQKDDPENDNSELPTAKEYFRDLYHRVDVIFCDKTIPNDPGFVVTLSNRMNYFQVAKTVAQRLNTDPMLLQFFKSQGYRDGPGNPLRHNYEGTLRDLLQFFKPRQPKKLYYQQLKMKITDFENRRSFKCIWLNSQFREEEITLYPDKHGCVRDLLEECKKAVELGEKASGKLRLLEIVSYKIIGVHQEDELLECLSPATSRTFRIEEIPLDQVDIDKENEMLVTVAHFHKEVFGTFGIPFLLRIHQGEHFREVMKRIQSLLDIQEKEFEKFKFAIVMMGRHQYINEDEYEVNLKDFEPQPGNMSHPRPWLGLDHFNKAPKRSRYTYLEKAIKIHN
# [9] = molecular target: T7, SENP1 (Homo sapiens, UniProt Q9P0U3); experiment: SUMO1-AMC assay, SENP1; assay type: biochemical; details: SUMO1-AMC substrate
# T7 sequence (Q9P0U3 1-644): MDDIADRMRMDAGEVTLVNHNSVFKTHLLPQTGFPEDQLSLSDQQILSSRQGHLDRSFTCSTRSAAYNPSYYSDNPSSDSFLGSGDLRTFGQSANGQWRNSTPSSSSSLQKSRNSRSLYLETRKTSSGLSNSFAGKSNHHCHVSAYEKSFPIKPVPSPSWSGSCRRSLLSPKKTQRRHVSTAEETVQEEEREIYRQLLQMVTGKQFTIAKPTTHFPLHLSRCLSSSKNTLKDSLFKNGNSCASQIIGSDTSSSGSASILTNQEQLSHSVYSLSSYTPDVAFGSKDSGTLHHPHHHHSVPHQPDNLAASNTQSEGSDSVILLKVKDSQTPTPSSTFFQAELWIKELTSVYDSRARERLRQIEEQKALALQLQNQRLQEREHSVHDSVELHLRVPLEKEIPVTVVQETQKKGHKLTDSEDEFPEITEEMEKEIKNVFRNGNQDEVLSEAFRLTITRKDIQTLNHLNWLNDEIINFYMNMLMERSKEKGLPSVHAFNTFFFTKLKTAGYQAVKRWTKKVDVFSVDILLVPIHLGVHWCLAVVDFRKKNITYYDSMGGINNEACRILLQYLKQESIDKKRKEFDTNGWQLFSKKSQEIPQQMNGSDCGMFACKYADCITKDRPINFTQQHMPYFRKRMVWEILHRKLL
# Chain of USP1/UAF1 (Q8TAF3 whole entry, one chain of several): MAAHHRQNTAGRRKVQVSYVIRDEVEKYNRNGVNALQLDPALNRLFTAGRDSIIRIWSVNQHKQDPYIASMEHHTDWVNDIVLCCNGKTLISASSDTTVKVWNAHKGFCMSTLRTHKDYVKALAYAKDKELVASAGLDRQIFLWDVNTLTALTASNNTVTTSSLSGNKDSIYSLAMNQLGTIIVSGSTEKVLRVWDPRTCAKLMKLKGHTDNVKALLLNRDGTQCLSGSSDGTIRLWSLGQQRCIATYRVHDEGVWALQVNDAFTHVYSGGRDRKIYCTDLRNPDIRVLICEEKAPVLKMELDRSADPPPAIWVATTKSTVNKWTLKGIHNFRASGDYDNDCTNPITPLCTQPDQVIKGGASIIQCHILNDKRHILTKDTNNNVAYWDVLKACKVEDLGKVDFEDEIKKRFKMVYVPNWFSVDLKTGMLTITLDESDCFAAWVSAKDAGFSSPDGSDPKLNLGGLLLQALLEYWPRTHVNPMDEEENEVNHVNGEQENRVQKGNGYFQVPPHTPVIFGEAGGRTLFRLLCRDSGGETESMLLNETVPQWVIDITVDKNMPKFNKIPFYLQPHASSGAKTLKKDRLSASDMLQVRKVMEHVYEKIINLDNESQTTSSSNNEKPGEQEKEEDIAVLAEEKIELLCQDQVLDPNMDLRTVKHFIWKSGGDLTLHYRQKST
Compound,reversibility of inhibition [1],IC50 [2] [µM],IC50 [3] [µM],IC50 [4] [µM],IC50 [5] [µM],IC50 [6] [µM],inhibition of USP1 alone [7],IC50 [8] [µM],inhibition of SENP1 [9],"IC50 for USP7, fold higher than that for USP1/UAF1 [8] [fold]"
"CN1CCN(CCCN2c3ccccc3Sc3ccc(C(F)(F)F)cc32)CC1 [Trifluoperazine, trifluoperazine]",largely reversible inhibitors,> 500,~130,> 250,> 250,> 500,low level of inhibition,9 ± 1,low level of inhibition,–
"OCCN1CCN(CCC=C2c3ccccc3Sc3ccc(C(F)(F)F)cc32)CC1 [Flupenthixol, flupenthixol]",largely reversible inhibitors,> 500,> 250,> 250,> 250,> 500,low level of inhibition,13 ± 1,low level of inhibition,–
"O=c1[nH]c2ccccc2n1C1CCN(CCCC(c2ccc(F)cc2)c2ccc(F)cc2)CC1 [Pimozide, pimozide]",largely reversible inhibitors,> 500,> 250,> 250,> 250,> 500,low level of inhibition,47 ± 1,low level of inhibition,24
CC(C)(Sc1ccc(CCN(CCCCC2CCCCC2)C(=O)NC2CCCCC2)cc1)C(=O)O [GW7647],largely reversible inhibitors,> 200,~130,42,21,> 200,low level of inhibition,44 ± 2,low level of inhibition,9
